Laboratory results taken from patent EP0538469A1, “SULFONANILIDE DERIVATIVE AND MEDICINE” (NIPPON SHINYAKU COMPANY, LIMITED, priority 1990, dated 1991).
Structures can show the parent of a compound that is named as a salt.

Columns and labels:
Format in all cases: in vivo
rats (SD strain, male) = assay: Acute toxicity, oral, rats; details: observed two weeks
Method: (§1) Numbers of mice (ddY-strain, male, 6-8 weeks age) and rats (SD strain, male, 6-7 weeks age) in each group were 4 and 6, respectively.
(§2) The drug to be tested was orally administered at the dose of 10 ml/kg using an oral probe to the animals which were fasted since one day before (for 16-18 hours). After giving the drug, the animals were returned to the state where both feed and water were available and the general symptom and the dead cases, if any, were checked for two weeks. The drug was suspended in physiological saline solution containing 0.5% of methylcellulose (0.5% MC) and the suspension was given to the animals by oral route.

[1] = Acute toxicity, oral, rats; details: rat, in vivo, SD rats, read-out: Rats LD₅₀
Method: as §1, §2

male rabbits = assay: Action to intra urethral pressure and blood pressure, intravenous administration; details: i.v.; for Selectivity (B/A): BP(ED30%↑) / IUP(ED150%↑), hydrochloride; for ED (30%) / ED (150%): Oryctolagus cuniculus, iv, anesthetized male rabbits; for ED (30%): dose increasing blood pressure to an extent of 30%, read-out: BP(B) [BP(ED30%↑)] (converted); for ED (150%): dose increasing intra urethral pressure to an extent of 150%, read-out: IUP(A) [IUP(ED150%↑)]
Method: The experiment was conducted using male rabbits of body weight of 1.4-3.1 kg under fasted condition. The animals were fixed at backs under uretrane(1.2g/kg s.c.) anesthesia, abdomen was subjected to a midline incision and bladder was exposed. In order to prevent the urine stored in the bladder on the intra urethral pressure, the urine in the bladder was compulsorily discharged out of the body. After that, a catheter was inserted into both ureters and the urine discharged from kidney was introduced outside.
The intra urethral pressure(IUP) at the urethra tract of about 0.5-1 cm distance from the neck of the bladder was measured using a microtip transducer transducer equipped with a baloon (filled with physiological saline solution) at the top end. Further, polyethylene tube was inserted into femoral artery to measure the blood pressure (BP).
The drug to be tested was injected into the vein of ear every fifteen minutes and the maximum responses of the increasing action of intra urethral pressure tract and of the increasing action of blood pressure were measured at each dose.

mice (ddY-strain, male) = assay: Acute toxicity, oral, mice; details: 1000 mg/kg, observed two weeks
Method: as §1, §2

| Compound | Rats Dead/ Total (rats (SD strain, male); 3 mg/kg) | Rats Dead/ Total (rats (SD strain, male); 10 mg/kg) | Rats Dead/ Total (rats (SD strain, male); 30 mg/kg) | Rats Dead/ Total (rats (SD strain, male); 100 mg/kg) | Rats Dead/ Total (rats (SD strain, male); 300 mg/kg) | LD50 at 336 h [1] | Selectivity (B/A) (male rabbits) | ED (30%) (male rabbits) | ED (150%) (male rabbits) | Mice Dead/ Total (mice (ddY-strain, male)) | Rats Dead/ Total (rats (SD strain, male); 5 mg/kg) |
| --- | --- | --- | --- | --- | --- | --- | --- | --- | --- | --- | --- |
| CNC[C@H](O)c1ccc(F)c(NS(C)(=O)=O)c1 [(61B)] | 0 / 6 | 2 / 6 | 1 / 6 | 5 / 6 | 6 / 6 | 36.1 mg/kg |  |  |  |  |  |
| CS(=O)(=O)Nc1cc(C(O)CN)c(F)cc1F.Cl (racemic) [(63A), (±)-5'-(2-Amino-1-hydroxyethyl)-2',4'-difluoromethanesulfonanilide hydrochloride] |  |  |  |  | 0 / 6 | > 300 mg/kg | 2.9 | 0.19 mg/kg | 0.065 mg/kg |  |  |
| CNCC(O)c1cc(NS(C)(=O)=O)c(F)cc1F.Cl (racemic) [(71A), (±)-2',4'-Difluoro-5'-(1-hydroxy-2-methylaminoethyl)methanesulfonanilide hydrochloride] |  |  |  |  | 0 / 6 | > 300 mg/kg | 2.1 | 0.095 mg/kg | 0.045 mg/kg |  |  |
| C[C@H](N)[C@H](O)c1ccc(F)c(NS(C)(=O)=O)c1 (racemic) [(70A), (±)-erythro-5'-(2-Amino-1-hydroxypropyl)-2'-fluoromethanesulfonanilide hydrochloride] |  |  |  |  | 2 / 6 | > 300 mg/kg | 3.6 | 0.1 mg/kg | 0.028 mg/kg |  |  |
| CNCC(O)c1cc(NS(C)(=O)=O)ccc1Cl (racemic) [(67A), (±)-4'-Chloro-3'-(1-hydorxy-2-methylaminoethyl)methanesulfonanilide hydrochloride, reference compound] |  |  |  |  | 0 / 6 | > 300 mg/kg | 4.2 | 2.93 mg/kg | 0.7 mg/kg |  |  |
| CS(=O)(=O)Nc1cccc([C@@H](O)CN)c1.Cl [(24B), (R)-(-)-3'-(2-Amino-1-hydroxyethyl)-methanesulfonanilide hydrochloride, reference compound] |  | 2 / 6 | 4 / 6 | 5 / 6 |  | 23.2 mg/kg | 1.0 | 0.019 mg/kg | 0.019 mg/kg | 0 / 4 | 0 / 6 |
| C[C@H](N)[C@H](O)c1cc(NS(C)(=O)=O)ccc1F (racemic) [(59A), (±)-erythro-3'-(2-Amino-1-hydroxypropyl)-4'-fluoromethanesulfonanilide hydrochloride] |  |  |  | 0 / 6 |  | > 100 mg/kg | 1.9 | 0.083 mg/kg | 0.044 mg/kg |  |  |
